# PMC4631608 (Journal of structural and functional genomics, 2015)
# Molecular target: M. tuberculosis Rv1496 (Mycobacterium tuberculosis, UniProt P9WPZ1)
# Sequence (P9WPZ1 3-336): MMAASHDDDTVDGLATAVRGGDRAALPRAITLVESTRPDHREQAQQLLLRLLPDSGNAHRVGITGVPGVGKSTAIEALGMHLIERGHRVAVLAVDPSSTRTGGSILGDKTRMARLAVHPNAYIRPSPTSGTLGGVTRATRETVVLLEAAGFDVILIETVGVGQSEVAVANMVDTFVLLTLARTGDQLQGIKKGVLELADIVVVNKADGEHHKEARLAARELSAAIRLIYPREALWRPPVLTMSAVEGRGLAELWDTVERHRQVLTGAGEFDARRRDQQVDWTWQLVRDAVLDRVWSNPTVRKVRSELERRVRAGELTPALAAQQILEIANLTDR
compound,measurement,value
Nc1nc2c(ncn2[C@@H]2O[C@H](COP(=O)(O)OP(=O)(O)O)[C@@H](O)[C@H]2O)c(=O)[nH]1 [GDP],"X-ray co-crystal structure, 2.45 Å","Rv1496 binds GDP via hydrogen bonds, one salt bridge, and van der Waals interactions"
